Assay results reported in patent US8394971B2, “Indole derivatives as selective androgen receptor modulators (SARMS)” (Janssen Pharmaceutica N.V., priority 2004, dated 2013).

Assays:
[1] = target: T1, androgen receptor (rat ventral prostate cytosol) (Rattus norvegicus, UniProt P15207); assay: Androgen Receptor Binding Using Rat Ventral Prostate Cytosol
T1 construct: from tissue; host or cells: ventral prostate of castrated male Sprague Dawley or Wistar rats, cytosol
T1 sequence (P15207 1-902): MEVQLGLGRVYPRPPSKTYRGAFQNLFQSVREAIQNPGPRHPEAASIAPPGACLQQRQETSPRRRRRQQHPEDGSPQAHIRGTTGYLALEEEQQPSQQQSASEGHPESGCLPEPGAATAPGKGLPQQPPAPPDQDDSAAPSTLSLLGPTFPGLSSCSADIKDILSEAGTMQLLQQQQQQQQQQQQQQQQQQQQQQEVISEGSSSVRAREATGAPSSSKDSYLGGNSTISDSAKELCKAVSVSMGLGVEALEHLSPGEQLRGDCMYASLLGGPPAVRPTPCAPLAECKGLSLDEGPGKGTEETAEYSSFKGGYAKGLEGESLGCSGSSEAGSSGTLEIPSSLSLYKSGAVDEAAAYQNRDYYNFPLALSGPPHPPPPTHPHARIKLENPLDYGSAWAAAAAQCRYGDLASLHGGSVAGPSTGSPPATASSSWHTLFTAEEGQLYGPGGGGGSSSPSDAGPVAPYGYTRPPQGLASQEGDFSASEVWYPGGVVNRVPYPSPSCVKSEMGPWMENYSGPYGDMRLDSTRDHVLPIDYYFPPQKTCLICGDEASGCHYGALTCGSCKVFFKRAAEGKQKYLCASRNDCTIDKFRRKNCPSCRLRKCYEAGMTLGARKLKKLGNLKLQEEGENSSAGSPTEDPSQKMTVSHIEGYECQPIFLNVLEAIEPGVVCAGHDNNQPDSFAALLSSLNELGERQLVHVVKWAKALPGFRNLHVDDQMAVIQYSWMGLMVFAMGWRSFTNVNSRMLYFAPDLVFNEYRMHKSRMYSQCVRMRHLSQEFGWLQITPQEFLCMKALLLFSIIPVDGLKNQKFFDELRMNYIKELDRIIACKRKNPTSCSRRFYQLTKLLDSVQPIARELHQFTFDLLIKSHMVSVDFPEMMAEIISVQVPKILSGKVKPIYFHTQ
Method: The assay was run on a 96 well plate with each well filled with a total reaction volume 150 μL, of a solution containing 5 pmol androgen receptor LBD (Panvera) or 30 μL of freshly prepared rat cytosol, 0.5 nM [^3H] […] (TED buffer contains 10 mM Tris.HCl pH 7.4, 1 mM sodium molybdate, 1.5 mM EDTA, 1 mM DTT and 10% (v/v) glycerol.)
On day one, the solution containing receptor, tracer and TED buffer was distributed into a 96 well plate. Diluted test compound or control vehicle was then added to individual wells and the plate incubated at 4° C. overnight.
On day two, to each well was then added 20 μL human γ-globulin (ICN 823102), prepared at 25 mg/ml in TE pH 8.0, and 55 μL 40% polyethylene glycol 8000 (JT Baker U222-08), prepared in TE pH 8.0. The plate was incubated at 4° C. for 60 minutes. During incubation, the harvester was rinsed with 10% PEG 8000, prepared in TE pH 8.0, and a GF/C Unifilter-96 was pre-wet with 10% PEG. The binding reaction was filtered, the retentate was washed three times with 10% PEG and dried under vacuum for a couple of minutes, then dried at 50° C. for 5 min and the plate was bottom sealed. Next, 25 μL of Microscint-20 (Packard) was added to the filter wells and the plate was top sealed. The plate wells were then counted on a TopCount (Packard).
Rat Prostate Cytosol Preparation:
Male Sprague Dawley or Wistar rats (Charles River, 200-300 g) were used for each preparation. The day before preparing the cytosol, the rats were castrated using standard surgical procedures.
The rats were euthanized by carbon dioxide asphyxiation. The rat prostates were quickly removed and placed on ice in pre-chilled, pre-weighed 50 mL plastic tubes. No more than five prostates were placed into one tube. The tubes were then weighed and the prostate tissue wet weights calculated.
To the chilled prostate tissue was then added […] of chilled homogenization buffer. The homogenization buffer was freshly prepared by mixing 10 mM Tris.HCl, pH 7.4, 1 mM sodium molybdate, 1.5 mM EDTA, 1 mM dithiothreitol, 10% (v/v) glycerol and 1% protease inhibitor cocktail (Sigma P 8340).
The prostate tissue was homogenized in a cold room using a pre-chilled Polytron PT3000 homogenizer (Brinkmann). Homogenization was performed at a speed setting of 20, three times for 10 sec bursts. The tubes containing the prostate tissue was kept on ice while homogenizing. The homogenate was allowed to rest on ice for 20 sec between bursts.
The homogenate was then placed into pre-chilled 3 mL polycarbonate ultracentrifuge tubes and centrifuged in the TLA-100 rotor of a TL-100 ultracentrifuge for 12 min at 100,000 rpm at 4° C. The resulting supernatant was stored in 1 mL aliquots at −80° C. until needed.
Binding to the androgen receptor was determined according to the protocol described in Example 86 using the above prepared rat cytosol.
% Inhibition was determined by testing dilutions of the test compound (usually duplicates of 10 μM) in the binding assay. Counts per well were measured and percents of inhibition determined. […] Counts per well were measured and IC50s determined by linear regression.

[2] = test system: testosterone-enhanced ventral prostate and seminal vesicle weights in castrated male Sprague Dawley rats; assay: Ventral Prostate and Seminal Vesicle Weight In Vivo Assay; set-up: species or system rat; settings: immature castrated rats; once daily for five days, usually orally at 40 mg/kg, with testosterone propionate 2 mg/kg s.c.
How it was run: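 Immature (~50 g) castrated Sprague Dawley rats dosed once daily for five days with compound (usually oral, 40 mg/kg, cyclodextrin or methylcellulose vehicle) plus testosterone propionate 2 mg/kg s.c. Wet ventral prostate and seminal vesicle weights taken on day six; activity judged by prostate weight or body-weight-adjusted % inhibition.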

[3] = rat cytosol, concentration 3000 nM

CC(O)(C[S+]([O-])Cc1ccccc1)c1cc2cc([N+](=O)[O-])c(C(F)(F)F)cc2[nH]1 (mixture of isomers) [compound 161]
% Inhibition [1, 3]: 39%
active / inactive (inhibition of testosterone-enhanced prostate weight) [2]: inactive

CSCCC(C)(O)c1cc2cc([N+](=O)[O-])c(C(F)(F)F)cc2[nH]1 (racemic) [compound 47]
% Inhibition ([1]; 3 µM): 81%
active / inactive (inhibition of testosterone-enhanced prostate weight) [2]: inactive

COc1ccc(S(=O)(=O)CC(C)(O)c2cc3cc(Cl)c(C(F)(F)F)cc3[nH]2)cc1 (racemic) [compound 129]
% Inhibition [1, 3]: 39.5%
active / inactive (inhibition of testosterone-enhanced prostate weight) [2]: inactive

COc1ccc(SCC(C)(O)c2cc3cc(Cl)c(C(F)(F)F)cc3n2S(C)(=O)=O)cc1 (racemic) [compound 130]
% Inhibition [1, 3]: 32.55%

CC(C)CSCC(C)(O)c1cc2cc([N+](=O)[O-])c(C(F)(F)F)cc2[nH]1 (racemic) [compound 170]
% Inhibition [1, 3]: 80%
active / inactive (inhibition of testosterone-enhanced prostate weight) [2]: active
